Measured values reported in US20040023994A1 (priority 2002, published 2004).
Marks after values point to notes of the source that are not given here.

Legend:
[1] = test system: A-498 cells; test: MTT cytotoxicity assay; format: cell-based, human; conditions: Homo sapiens, A498
Experimental: (§1) Preliminary studies examining the in vitro cytotoxicity of cis-AVTP and trans-AVTG as compared to the parent drugs, were carried out using the 3-[4,5-dimethylthiazol-2-yl]-2,5-diphenyl tetrazolium bromide (MTT) cytotoxicity assay.

[2] = test system: ACHN cells; test: MTT cytotoxicity assay; format: cell-based, human; conditions: Homo sapiens
Experimental: as §1

[3] = test system: all the cell lines included in the screen; test: cells; conditions: for median TGI: all cell lines of the NCI screen; for GI50: read-out: median GI50; for CC50: read-out: median LC50
Experimental: cis-AVTP and trans-AVTG were tested in National Cancer Institute's (NCI) 60 cell lines derived from leukemia, melanoma, lung, kidney cancers. Most chemotherapeutic agents currently nd 6-TG, have been tested in this screen and a database he National Institutes of Health. The NCI assigned s-AVTP, and number NSC-722289 to trans-AVTG. tocol used for the cytotoxicity assessment in the NCI e from the National Institutes of Health. Briefly, tumor ma, lung, colon, brain, ovary, breast, prostate, and um containing 5% fetal bovine serum and 2 mM L-glutamine re plated in a 100 μL volume into 96 well microtiter 37° C. in humidified atmosphere supplemented with 5% ach cell line were fixed with trichloroacetic acid for f drug addition (Tz). The drugs, as 400-fold concentrated uted to twice the final maximum test concentration with entamicin. Additional four 10-fold dilutions were made us control. Aliquots (100 μl) of the drug solutions were 100 μl of medium, resulting in the required final drug the plates were incubated at 37° C. in humidified for additional 48 h. The assay was terminated by the w/v) trichloroacetic acid for adherent and suspension minutes at 4° C. The supernatant was discarded, the and air dried. A 100 μl aliquot of 0.4% (w/v) sulforhodamine B (SRB) solution in 1% acetic acid was added to each well, and the plates incubated for 10 minutes at room temperature. After staining, unbound dye was removed by washing five times with 1% acetic acid and the plates air dried. Bound stain was solubilized with 10 mM trizma base, and the absorbance read on a plate reader at a wavelength of 515 nm.
By using time zero (Tz), control growth (C), and test growth in the presence of drug at the five concentration levels (Ti), the percentage growth was calculated at each of the drug concentration levels. Percentage growth inhibition was calculated as:
[(Ti−Tz)/(C−Tz)]×100 for concentrations for which Ti>/=Tz
[(Ti−Tz)/Tz]×100 for concentrations for which Ti<Tz.
Three dose response parameters were calculated for each experimental agent. […] The TGI, the drug concentration resulting in total growth inhibition was calculated from Ti=Tz. The LC50 (the concentration of drug resulting in a 50% reduction in the measured protein at the end of the drug treatment as compared to that at the beginning) indicating a net loss of cells following treatment was calculated from [(Ti−Tz)/Tz]×100=−50. Values were calculated for each of these three parameters if the level of activity is reached; however, if the effect was not reached or was exceeded, the value for that parameter is expressed as greater or less than the maximum or minimum concentration tested.

[4] = test system: Breast cell lines
[5] = test system: Prostate cell lines
[6] = test system: Colon cell lines
[7] = test system: Renal cell lines
[8] = test system: Melanoma cell lines
[9] = test system: NSCL cell lines
[10] = test system: CNS cell lines
[11] = test system: Leukemia cell lines; conditions: Leukemia
[12] = test system: Breast cell lines; test: cells; conditions: for GI50: read-out: median GI50; for CC50: read-out: median LC50
[13] = test system: Prostate cell lines; test: cells; conditions: for GI50: read-out: median GI50; for CC50: read-out: median LC50
[14] = test system: Colon cell lines; test: cells; conditions: for GI50: read-out: median GI50; for CC50: read-out: median LC50
[15] = test system: Renal cell lines; test: cells; conditions: for GI50: read-out: median GI50; for CC50: read-out: median LC50
[16] = test system: Melanoma cell lines; test: cells; conditions: for GI50: read-out: median GI50; for CC50: read-out: median LC50
[17] = test system: NSCL cell lines; test: cells; conditions: for GI50: read-out: median GI50; for CC50: read-out: median LC50
[18] = test system: CNS cell lines; test: cells; conditions: Homo sapiens; for GI50: read-out: median GI50; for CC50: read-out: median LC50
[19] = test system: Leukemia cell lines; test: cells; conditions: for GI50: read-out: median GI50; for CC50: read-out: median LC50
[20] = test system: Ovarian cell lines; test: NCI anticancer screen, by tissue type; conditions: for median TGI: Ovarian; for GI50: read-out: median GI50; for CC50: read-out: median LC50

| Structure (SMILES) | IC50 ([1]; A-498, 72 h incubation, MTT) [µM] | IC50 ([2]; 72 h incubation, MTT) [µM] | median TGI [3] [µM] | GI50 [3] [µM] | CC50 [3] [µM] | median TGI [4] | median TGI [5] [µM] | median TGI [6] [µM] | median TGI [7] | median TGI [8] [µM] | median TGI [9] [µM] | median TGI [10] [µM] | median TGI [11] [µM] | GI50 [12] [µM] | CC50 [12] [µM] | GI50 [13] [µM] | CC50 [13] [µM] | GI50 [14] [µM] | CC50 [14] [µM] | GI50 [15] [µM] | other results |
| --- | --- | --- | --- | --- | --- | --- | --- | --- | --- | --- | --- | --- | --- | --- | --- | --- | --- | --- | --- | --- | --- |
| Sc1ncnc2nc[nH]c12 [6-MP, 6-mercaptopurine] | 60.6 ± 25.5 | 6.3 ± 1.9 | >100 | 3.97 | > 100 | >100 µM | >100 | >100 | >100 µM | >100 | >100 | >100 | >100 | 9.42 | > 100 | 2.77 | > 100 | 4.53 | > 100 | 4.33 | IC50 ([1]; A-498, 96 h drug incubation): 14.9 ± 6.7 µM; IC50 ([2]; 48 h drug incubation): 44.8 ± 5 µM; IC50 ([2]; 96 h drug incubation): 0.9 ± 0.3 µM; CC50 [15]: > 100 µM; GI50 [16]: 5.04 µM; CC50 [16]: > 100 µM; GI50 [17]: 3.74 µM; CC50 [17]: > 100 µM; GI50 [18]: 6.64 µM; CC50 [18]: > 100 µM; GI50 [19]: 1.39 µM; CC50 [19]: > 100 µM; median TGI [20]: >100 µM; GI50 [20]: 4.77 µM; CC50 [20]: > 100 µM |
| Nc1nc2nc[nH]c2c(=S)[nH]1 [6-TG, 6-thioguanine] | 6.9 ± 4.1 | 2.5 ± 0.8 | 41.3 | 1.04 | > 100 | 67.8^# μM | >100 | 41.2 | 89.2^# μM | 15.3 | 24.0 | >100 | 19.4 | 1.48 | > 100 | 1.27 | > 100 | 1.32 | > 100 | 1.14 | CC50 [15]: > 100 µM; GI50 [16]: 1.13 µM; CC50 [16]: > 100 µM; GI50 [17]: 0.91 µM; CC50 [17]: > 100 µM; GI50 [18]: 1.28 µM; CC50 [18]: > 100 µM; GI50 [19]: 0.33 µM; CC50 [19]: > 100 µM; median TGI [20]: 53.8 µM; GI50 [20]: 0.7 µM; CC50 [20]: > 100 µM |
